Measured values: patent US20250249056A1, “CANCER THERAPIES COMPRISING A NUCLEAR EXPORT INHIBITOR AND AN ONCOLYTIC VIRUS” (priority 2022, published 2025)

System: Colo205 cells
Assay type: cell-based, human
Details: selinexor-treated nucleus vs MYXV + selinexor-treated nucleus

## O=C(/C=C\n1cnc(-c2cc(C(F)(F)F)cc(C(F)(F)F)c2)n1)NNc1cnccn1 [selinexor]
  Differential protein expression B2CWG0 m053R: 0.01
  Differential protein expression B2CWG4 m057L: 0.01
  Differential protein expression B2CWG5 m058R: 0.176
  Differential protein expression B2CWG7 m060R: 0.01
  Differential protein expression B2CWG8 m061R: 0.01
  Differential protein expression B2CWH0: 0.069
  Differential protein expression B2CWH1 m064R: 0.211
  Differential protein expression B2CWH3 m066R: 0.01
  Differential protein expression B2CWH6 m069L: 0.01
  Differential protein expression B2CWH8: 0.232
  Differential protein expression B2CWI0: 0.021
  Differential protein expression B2CWI3 m076R: 0.096
  Differential protein expression B2CWI4 m077L: 0.01
  Differential protein expression B2CWI6 m079R: 0.131
  Differential protein expression B2CWI7 m080R: 0.036
  Differential protein expression B2CWJ3: 0.01
  Differential protein expression B2CWJ5: 0.01
  Differential protein expression B2CWJ9 m092L: 0.16
  Differential protein expression B2CWK2 m095L: 0.029
  Differential protein expression B2CWL4: 0.01
  Differential protein expression B2CWL5 m108R: 0.088
  Differential protein expression B2CWL8 m111R: 0.101
  Differential protein expression B2CWM1: 0.083
  Differential protein expression B2CWM2 m115L: 0.077
  Differential protein expression B2CWP6 m139R: 0.04
  Differential protein expression B2CWP9 m142R: 0.01
  Differential protein expression B2CWQ5 m149R: 0.01
  Differential protein expression B2CWQ7: 0.229
  Differential protein expression B2CWR1 m156R: 0.022
  Differential protein expression D2WM37 m012L: 0.058
  Differential protein expression D2WMA0 m030L: 0.057
  Differential protein expression D2WN05 m078R: 0.021
  Differential protein expression D2WN26 m090L: 0.097
  Differential protein expression D2WN93 m151R: 0.255
  Differential protein expression D3W0C4 m130R: 0.01
  Differential protein expression E2CZH7 m088L: 0.01
  Differential protein expression E2CZJ6 m107L: 0.01
  Differential protein expression E2CZJ9 m110L: 0.01
  Differential protein expression E2CZK3 m114R: 0.083
  Differential protein expression E2CZL2 m123R: 0.277
  Differential protein expression E2CZL6 m127L: 0.025
  Differential protein expression E2CZM0 m131R: 0.01
  Differential protein expression E2CZM2 m133R: 0.048
  Differential protein expression E2CZP2 m001R: 0.037
  Differential protein expression E2CZQ3 m009L: 0.132
  Differential protein expression E2CZQ9 m014L: 0.092
  Differential protein expression E2CZR0 m015L: 0.04
  Differential protein expression E2CZR6 m021L: 0.133
  Differential protein expression E2CZV0 m055R: 0.052
  Differential protein expression E2CZV1 m056R: 0.01
  Differential protein expression E2CZV4 m059R: 0.01
  Differential protein expression E2CZW3 m068R: 0.052
  Differential protein expression E2CZW7 m072L: 0.211
  Differential protein expression E2CZY1 m086L: 0.01
  Differential protein expression K4JKC2 m073R: 0.021
  Differential protein expression O00584 RNASET2: 0.01
  Differential protein expression O10625 M-T1: 0.037
  Differential protein expression O55698 M-T4: 0.122
  Differential protein expression O76013 KRT36: 0.01
  Differential protein expression O76015 KRT38: 0.01
  Differential protein expression P01100 FOS: 0.211
  Differential protein expression P05090 APOD: 0.01
  Differential protein expression P07942 LAMB1: 0.128
  Differential protein expression P10909 CLU: 0.01
  Differential protein expression P14209 CD99: 0.01
  Differential protein expression P17066 HSPA6: 0.01
  Differential protein expression P17516 AKR1C4: 0.01
  Differential protein expression P50583 NUDT2: 0.01
  Differential protein expression P68544 PAPS: 0.044
  Differential protein expression P68550: 0.168
  Differential protein expression Q5BJH7 YIF1B: 0.161
  Differential protein expression Q5VVJ2 MYSM1: 0.01
  Differential protein expression Q6SJ93 FAM111B: 0.253
  Differential protein expression Q8IY95 TMEM192: 0.01
  Differential protein expression Q8TB72 PUM2: 0.01
  Differential protein expression Q8TDQ7 GNPDA2: 0.01
  Differential protein expression Q9P000 COMMD9: 0.213
  Differential protein expression Q9PX24 m007L: 0.087
  Differential protein expression Q9PX36 m006L: 0.035
  Differential protein expression Q9PXA3 m004L: 0.122
  Differential protein expression Q9Q8F0 m154L: 0.125
  Differential protein expression Q9Q8F9 m144R: 0.179
  Differential protein expression Q9Q8G2 m140R: 0.165
  Differential protein expression Q9Q8G4 m137R: 0.01
  Differential protein expression Q9Q8G6 m135R: 0.021
  Differential protein expression Q9Q8H2 m129R: 0.119
  Differential protein expression Q9Q8H9 m122R: 0.022
  Differential protein expression Q9Q8I1 m120L: 0.024
  Differential protein expression Q9Q8I4 m117L: 0.027
  Differential protein expression Q9Q8I6 m114R: 0.083
  Differential protein expression Q9Q8J1 m109L: 0.032
  Differential protein expression Q9Q8J4 m106L: 0.01
  Differential protein expression Q9Q8J5 m105L: 0.01
  Differential protein expression Q9Q8J9 m101L: 0.01
  Differential protein expression Q9Q8K1 m099L: 0.03
  Differential protein expression Q9Q8K3 m097R: 0.01
  Differential protein expression Q9Q8K6 m094R: 0.01
  Differential protein expression Q9Q8K7 m093L: 0.039
  Differential protein expression Q9Q8L1 m089L: 0.01
  Differential protein expression Q9Q8L3 m087L: 0.069
  Differential protein expression Q9Q8L8 m082R: 0.037
  Differential protein expression Q9Q8L9 VETFS: 0.087
  Differential protein expression Q9Q8M5 m075R: 0.01
  Differential protein expression Q9Q8M6 m074R: 0.047
  Differential protein expression Q9Q8M9 m071L: 0.232
  Differential protein expression Q9Q8N0 m070R: 0.01
  Differential protein expression Q9Q8N5: 0.069
  Differential protein expression Q9Q8N8 m058R: 0.176
  Differential protein expression Q9Q8P4 m052L: 0.029
  Differential protein expression Q9Q8P7 m049R: 0.051
  Differential protein expression Q9Q8Q1: 0.059
  Differential protein expression Q9Q8Q3 m043L: 0.067
  Differential protein expression Q9Q8Q6 m040L: 0.011
  Differential protein expression Q9Q8Q8 m038L: 0.023
  Differential protein expression Q9Q8R0 m036L: 0.099
  Differential protein expression Q9Q8R4 m032R: 0.01
  Differential protein expression Q9Q8R5 m031R: 0.011
  Differential protein expression Q9Q8S0 m026R: 0.039
  Differential protein expression Q9Q8S2 m020L: 0.191
  Differential protein expression Q9Q8S8 m013L: 0.172
  Differential protein expression Q9Q817 m113R: 0.037
  Differential protein expression Q9UHX3 ADGRE2: 0.01
  Differential protein expression Q9UJ68 MSRA: 0.202
  Differential protein expression Q9YQ03 mt6: 0.031
  Differential protein expression Q68DK2 ZFYVE26: 0.092
  Differential protein expression Q77P93 m003.2L: 0.049
  Differential protein expression Q77PB1 m003.1L: 0.145
  Differential protein expression Q86WV6 STING1: 0.01
  Differential protein expression Q96HD1 CRELD1: 0.01
  Differential protein expression Q96LJ7 DHRS1: 0.01
  Differential protein expression Q12913 PTPRJ: 0.01
  Differential protein expression Q16204 CCDC6: 0.249
  Differential protein expression Q58719 SFT2D3: 0.01
  Differential protein expression Q83604 MF13: 0.058
  Differential protein expression Q83730 m005R: 0.01
  Differential protein expression Q85296: 0.124
  Differential protein expression Q85297: 0.01
